Results reported in ChEMBL document CHEMBL1201862, “PubChem BioAssay data set” (2004).
The source made the active and inactive calls. Positions of bridges follow the written chain, without caps; N, C: chain ends. Non-standard residues stand in square brackets, D forms with d. Residues, ends and D or L forms follow the SMILES beside them. *: point of attachment. X1 = CCC(C)C(N)C1=NC(C(=O)*)CS1; dOrn = NCCC[C@@H](N)C(=O)O

Experiments:
[1] = target: Nuclear receptor subfamily 0 group B member 1 (Homo sapiens, UniProt P51843); assay: Luminescence-based cell-based high throughput dose response assay for inhibitors of the orphan nuclear receptor subfamily 0, group B, member 1 (DAX1; NR0B1). [Related pubchem assays (depositor defined):AID504766, AID504790]; format: functional
[2] = test system: HEK293; assay: cells; format: functional, cell-based; conditions: Homo sapiens
[3] = test system: HEK293; assay: cells; conditions: Homo sapiens
[4] = test system: HEK293; assay: cells; conditions: Homo sapiens; remark: listed apart in the source
[5] = Luminescence Cell-Based Dose Retest to Confirm Inhibitors of Cancer Stem Cells. [Related pubchem assays (depositor defined):AID2717, AID2721]; format: functional; conditions: Homo sapiens
[6] = cytotoxicity in HMLE control line with eGFP shRNA, dose response, counter-screen for HMLE_sh_ECad selective toxicity project, cell-based, HMLE_sh_eGFP, luminescence (AID 463074); format: functional, Homo sapiens;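 note: HMLE human mammary epithelial cells expressing control shRNA against eGFP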
[7] = target: T1, CAAX prenyl protease 2 (Saccharomyces cerevisiae S288c, UniProt Q03530); format: biochemical
T1 sequence (Q03530 whole entry): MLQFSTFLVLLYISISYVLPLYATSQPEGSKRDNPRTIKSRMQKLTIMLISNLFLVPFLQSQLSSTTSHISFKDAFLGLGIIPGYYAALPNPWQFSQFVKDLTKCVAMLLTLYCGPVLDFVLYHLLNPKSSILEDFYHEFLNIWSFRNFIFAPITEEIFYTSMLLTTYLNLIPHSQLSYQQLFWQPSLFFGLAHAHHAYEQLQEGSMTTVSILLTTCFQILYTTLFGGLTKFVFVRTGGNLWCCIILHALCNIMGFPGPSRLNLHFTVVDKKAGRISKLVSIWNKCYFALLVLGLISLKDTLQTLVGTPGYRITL

[8] = test system: Jurkat; assay: antigen receptor-induced NF-kB inhibitors, dose response, Jurkat, luciferase reporter, luminescence, B- and T-cell (AID 489004); format: functional, cell-based; conditions: Homo sapiens;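 note: NF-kB luciferase reporter Jurkat cells stimulated with PMA plus ionomycin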
[9] = cytotoxicity in HEK-293T NF-kB-Luc cells, dose response, cytotoxicity control for B/T-cell NF-kB inhibitor project, cell-based, uHTS hits (AID 489019); format: functional;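 note: IC50 reflects cytotoxicity as loss of cell viability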
[10] = target: T2, Replicative DNA helicase DnaB (Mycobacterium tuberculosis, UniProt P9WMR3); assay: DnaB intein splicing inhibitors, dose response, biochemical, cell-free fluorescence (AID 449749); format: functional
T2 sequence (P9WMR3 whole entry): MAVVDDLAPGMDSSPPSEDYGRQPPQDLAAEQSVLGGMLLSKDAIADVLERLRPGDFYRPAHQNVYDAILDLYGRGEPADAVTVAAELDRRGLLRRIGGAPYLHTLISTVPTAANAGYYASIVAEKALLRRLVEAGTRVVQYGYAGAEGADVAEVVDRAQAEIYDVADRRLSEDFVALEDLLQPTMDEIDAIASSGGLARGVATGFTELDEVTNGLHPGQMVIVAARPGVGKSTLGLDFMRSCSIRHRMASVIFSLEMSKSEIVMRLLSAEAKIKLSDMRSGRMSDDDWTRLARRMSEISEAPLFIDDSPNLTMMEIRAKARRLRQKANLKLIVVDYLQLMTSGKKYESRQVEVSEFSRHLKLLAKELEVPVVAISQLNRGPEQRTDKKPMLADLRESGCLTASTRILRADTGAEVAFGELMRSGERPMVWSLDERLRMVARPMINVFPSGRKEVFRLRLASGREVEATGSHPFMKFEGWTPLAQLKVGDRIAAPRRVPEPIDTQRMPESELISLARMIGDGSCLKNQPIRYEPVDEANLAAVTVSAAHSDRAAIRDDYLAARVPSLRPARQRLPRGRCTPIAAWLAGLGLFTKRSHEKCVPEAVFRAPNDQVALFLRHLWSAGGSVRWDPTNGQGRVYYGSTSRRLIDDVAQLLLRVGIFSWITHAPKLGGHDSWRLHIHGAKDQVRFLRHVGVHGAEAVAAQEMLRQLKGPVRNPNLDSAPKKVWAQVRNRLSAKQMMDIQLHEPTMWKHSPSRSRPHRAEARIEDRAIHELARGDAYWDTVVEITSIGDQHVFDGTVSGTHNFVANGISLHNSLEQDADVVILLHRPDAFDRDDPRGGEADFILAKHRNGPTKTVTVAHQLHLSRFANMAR

[11] = test system: A-375; assay: MITF: Counter assay: A375 proliferation Measured in Cell-Based System Using Plate Reader - 2084-03_Inhibitor_Dose_DryPowder_Activity. [Related pubchem assays (depositor defined):AID488944]; format: functional; conditions: Homo sapiens
[12] = target: T3, Apoptotic protease-activating factor 1 (Homo sapiens, UniProt O14727); format: functional
T3 sequence (O14727 whole entry): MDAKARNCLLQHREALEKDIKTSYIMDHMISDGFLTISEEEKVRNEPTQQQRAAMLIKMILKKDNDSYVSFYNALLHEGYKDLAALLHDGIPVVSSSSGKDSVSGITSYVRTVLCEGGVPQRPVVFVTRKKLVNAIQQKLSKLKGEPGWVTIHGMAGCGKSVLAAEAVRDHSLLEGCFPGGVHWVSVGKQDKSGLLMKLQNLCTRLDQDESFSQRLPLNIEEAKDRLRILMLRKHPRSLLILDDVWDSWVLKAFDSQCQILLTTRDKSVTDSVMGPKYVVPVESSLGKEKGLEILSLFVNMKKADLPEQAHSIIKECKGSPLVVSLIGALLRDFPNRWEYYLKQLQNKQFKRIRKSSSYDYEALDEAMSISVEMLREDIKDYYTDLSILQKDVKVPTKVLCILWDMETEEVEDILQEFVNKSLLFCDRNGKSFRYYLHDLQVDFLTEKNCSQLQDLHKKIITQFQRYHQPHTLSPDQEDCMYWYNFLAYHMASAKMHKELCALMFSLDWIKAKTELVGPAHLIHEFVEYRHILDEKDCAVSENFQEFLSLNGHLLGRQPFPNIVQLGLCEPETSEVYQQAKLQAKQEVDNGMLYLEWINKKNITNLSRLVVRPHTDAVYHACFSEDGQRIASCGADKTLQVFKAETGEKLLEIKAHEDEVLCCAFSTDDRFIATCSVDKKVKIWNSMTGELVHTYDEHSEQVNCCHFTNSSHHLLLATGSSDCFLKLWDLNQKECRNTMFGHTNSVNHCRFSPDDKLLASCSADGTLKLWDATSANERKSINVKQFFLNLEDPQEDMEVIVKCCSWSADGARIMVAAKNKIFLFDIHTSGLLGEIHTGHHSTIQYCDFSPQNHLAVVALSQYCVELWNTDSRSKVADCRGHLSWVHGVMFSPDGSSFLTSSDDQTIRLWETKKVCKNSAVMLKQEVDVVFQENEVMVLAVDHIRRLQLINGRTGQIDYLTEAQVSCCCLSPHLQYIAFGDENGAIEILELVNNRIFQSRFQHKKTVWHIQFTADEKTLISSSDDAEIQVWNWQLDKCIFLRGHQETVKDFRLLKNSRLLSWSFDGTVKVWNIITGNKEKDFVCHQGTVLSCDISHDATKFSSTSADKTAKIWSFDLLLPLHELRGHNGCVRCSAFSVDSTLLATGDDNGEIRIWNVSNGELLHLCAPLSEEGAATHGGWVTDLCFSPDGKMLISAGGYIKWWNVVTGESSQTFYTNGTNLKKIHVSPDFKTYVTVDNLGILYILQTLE

[13] = target: T4, Protein RecA (Mycobacterium tuberculosis, UniProt P9WHJ3); assay: Fluorescence Cell-Free Homogeneous Dose Retest to Identify Inhibitors of RecA-Intein Splicing Activity. [Related pubchem assays (depositor defined):AID2097, AID2223, AID489010, AID492950]; format: functional
T4 sequence (P9WHJ3 whole entry): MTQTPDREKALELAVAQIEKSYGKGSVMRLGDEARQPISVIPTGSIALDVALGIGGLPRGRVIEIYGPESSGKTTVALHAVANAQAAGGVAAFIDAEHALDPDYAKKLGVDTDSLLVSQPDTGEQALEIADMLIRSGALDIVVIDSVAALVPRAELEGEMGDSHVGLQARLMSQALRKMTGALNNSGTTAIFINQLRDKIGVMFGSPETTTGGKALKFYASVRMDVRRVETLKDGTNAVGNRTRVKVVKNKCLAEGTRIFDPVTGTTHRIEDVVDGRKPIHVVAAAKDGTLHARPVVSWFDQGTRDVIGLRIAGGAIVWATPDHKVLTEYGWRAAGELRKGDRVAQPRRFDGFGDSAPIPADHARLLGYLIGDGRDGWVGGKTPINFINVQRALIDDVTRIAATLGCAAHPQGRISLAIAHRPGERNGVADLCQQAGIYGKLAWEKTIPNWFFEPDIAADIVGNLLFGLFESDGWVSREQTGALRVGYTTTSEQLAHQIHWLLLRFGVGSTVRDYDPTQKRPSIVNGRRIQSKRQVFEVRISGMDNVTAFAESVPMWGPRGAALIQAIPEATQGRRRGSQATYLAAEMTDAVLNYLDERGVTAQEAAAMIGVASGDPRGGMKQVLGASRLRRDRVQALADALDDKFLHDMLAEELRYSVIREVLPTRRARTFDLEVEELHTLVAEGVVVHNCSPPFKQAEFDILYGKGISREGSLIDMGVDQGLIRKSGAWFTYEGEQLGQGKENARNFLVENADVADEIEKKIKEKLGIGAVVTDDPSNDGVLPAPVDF

[14] = target: T5, Microphthalmia-associated transcription factor (Homo sapiens, UniProt O75030); assay: TRPM1 promoter luciferase signal decrease, dose response, MITF inhibitor project, cell-based, SK-MEL-5, cherry-picked, set 3 (AID 493073); format: functional
T5 sequence (O75030 whole entry): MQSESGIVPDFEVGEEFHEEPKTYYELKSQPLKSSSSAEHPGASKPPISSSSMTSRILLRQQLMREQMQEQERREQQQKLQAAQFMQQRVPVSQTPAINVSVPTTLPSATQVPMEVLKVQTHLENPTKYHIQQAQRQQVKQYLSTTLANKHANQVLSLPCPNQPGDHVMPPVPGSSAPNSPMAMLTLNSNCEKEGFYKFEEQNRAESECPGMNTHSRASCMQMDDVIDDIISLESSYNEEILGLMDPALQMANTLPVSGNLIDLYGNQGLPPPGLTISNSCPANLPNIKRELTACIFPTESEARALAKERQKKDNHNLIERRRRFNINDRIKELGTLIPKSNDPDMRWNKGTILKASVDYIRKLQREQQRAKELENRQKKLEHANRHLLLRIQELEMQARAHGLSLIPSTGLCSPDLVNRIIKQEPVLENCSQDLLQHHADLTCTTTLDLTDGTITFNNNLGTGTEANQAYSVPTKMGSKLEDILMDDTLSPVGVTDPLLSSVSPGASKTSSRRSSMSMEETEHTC

[15] = test system: INS1; assay: beta cell apoptosis inhibitors, cytokine rescue, dose response, luminescence, retest (AID 449756); format: functional, cell-based; conditions: Rattus norvegicus;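 note: cell death triggered by IL-1 beta plus TNF-alpha plus IFN-gamma mixture; protective hits raise ATP signal compared with cytokine alone wells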
[16] = test system: Escherichia coli; assay: microbe, parasite or virus in culture
[17] = test system: Escherichia coli; assay: microbe, parasite or virus in culture; remark: listed apart in the source
[18] = target: T6, Hexokinase HKDC1 (Homo sapiens, UniProt Q2TB90); assay: HKDC1 hexokinase inhibitors, dose response, biochemical, W721R variant (AID 504729); format: functional
T6 sequence (Q2TB90 whole entry): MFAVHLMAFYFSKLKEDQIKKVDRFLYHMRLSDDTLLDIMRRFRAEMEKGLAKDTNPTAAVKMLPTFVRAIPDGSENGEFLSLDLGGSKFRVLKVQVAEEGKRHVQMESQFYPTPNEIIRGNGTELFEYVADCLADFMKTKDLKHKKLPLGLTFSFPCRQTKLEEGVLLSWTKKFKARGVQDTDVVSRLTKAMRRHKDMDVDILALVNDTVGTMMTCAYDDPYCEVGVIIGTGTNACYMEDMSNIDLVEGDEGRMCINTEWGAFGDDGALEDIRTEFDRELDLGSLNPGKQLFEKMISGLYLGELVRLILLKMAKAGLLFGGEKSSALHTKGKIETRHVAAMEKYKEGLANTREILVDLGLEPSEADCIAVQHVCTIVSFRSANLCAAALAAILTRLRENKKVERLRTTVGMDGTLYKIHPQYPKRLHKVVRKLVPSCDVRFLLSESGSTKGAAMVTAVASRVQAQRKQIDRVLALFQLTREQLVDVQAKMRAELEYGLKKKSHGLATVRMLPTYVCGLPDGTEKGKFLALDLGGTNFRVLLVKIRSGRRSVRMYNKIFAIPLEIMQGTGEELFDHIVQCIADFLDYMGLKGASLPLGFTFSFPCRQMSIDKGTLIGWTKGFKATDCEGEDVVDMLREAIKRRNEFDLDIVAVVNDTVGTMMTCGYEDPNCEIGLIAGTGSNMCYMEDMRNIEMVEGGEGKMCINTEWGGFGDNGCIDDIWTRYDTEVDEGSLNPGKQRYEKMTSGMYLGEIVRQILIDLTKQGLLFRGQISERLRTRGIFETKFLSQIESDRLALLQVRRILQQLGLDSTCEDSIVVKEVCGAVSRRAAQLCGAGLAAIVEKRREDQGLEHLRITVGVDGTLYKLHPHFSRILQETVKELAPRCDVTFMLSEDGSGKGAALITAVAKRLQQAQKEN

Sequence of Nuclear receptor subfamily 0 group B member 1 (P51843 whole entry): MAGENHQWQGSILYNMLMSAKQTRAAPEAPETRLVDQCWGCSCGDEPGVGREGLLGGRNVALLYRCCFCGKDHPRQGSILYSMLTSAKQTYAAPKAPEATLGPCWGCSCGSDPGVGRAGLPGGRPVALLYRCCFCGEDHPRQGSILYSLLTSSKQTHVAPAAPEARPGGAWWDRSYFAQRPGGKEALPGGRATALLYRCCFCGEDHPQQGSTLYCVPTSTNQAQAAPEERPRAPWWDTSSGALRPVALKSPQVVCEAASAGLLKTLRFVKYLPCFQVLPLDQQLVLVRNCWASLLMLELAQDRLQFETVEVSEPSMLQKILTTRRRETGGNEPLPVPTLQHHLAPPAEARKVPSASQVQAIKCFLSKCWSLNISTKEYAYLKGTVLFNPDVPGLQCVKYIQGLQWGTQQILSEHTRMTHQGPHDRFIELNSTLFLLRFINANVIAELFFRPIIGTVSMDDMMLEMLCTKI

## CNC(=O)c1ncnnc1N(C)C(=O)NCc1ccccc1
[1]
  IC50: > 67.5 µM (inactive)
[2]
  IC50: > 67.5 µM (inactive)

## COc1ccc(Cn2nnc3c(O)nc(C(=O)NCCc4ccc(F)cc4)nc32)cc1OC
[3]
  EC50: > 59.7 µM (inactive)
[4]
  EC50: > 59.7 µM (inactive)

## CCCCN=C(S)N=Nc1c(O)n(Cc2ccccc2)c2ccccc12
[5]
  AC50: 61.5 µM (active)
[6]
  AC50: 119 µM (active)
[7]
  AC50: 0.601 µM (active)

## N=c1ccn2c(n1)O[C@H]1[C@@H](CO)[C@H](O)O[C@H]12
[8]
  IC50: > 80 µM (inactive)
[9]
  IC50: > 80 µM (inactive)

## CCOC(=O)c1c(C)oc2c1C(=O)c1ccccc1C2=O
[10]
  AC50: 6.31 µM (active)
[11]
  AC50: 41.9 µM (active)
[5]
  AC50: 4.44 µM (active)
[12]
  IC50: 16.1 µM (active)
[13]
  EC50: 13.3 µM (active)
[14]
  AC50: 3.18 µM (active)
[15]
  AC50: 3.7 µM (active)

## CCC(C)C(N)C1=NC(C(=O)N[C@@H](CC(C)C)C(=O)N[C@H](CCC(=O)[O-])C(=O)N[C@H](C(=O)N[C@H]2CCCCNC(=O)[C@H](CC(N)=O)NC(=O)[C@@H](CC(=O)[O-])NC(=O)[C@H](Cc3c[nH]cn3)NC(=O)[C@@H](Cc3ccccc3)NC(=O)[C@H]([C@@H](C)CC)NC(=O)[C@@H](CCCN)NC2=O)[C@@H](C)CC)CS1.[Zn+2] (some centres undefined) (X1-L[dE]IK[dOrn]I[dF]H[dD]N; lactam 4-C)
[16]
  AC50: 184 µM (active)
[17]
  AC50: 38 µM (active)
[18]
  IC50: 2.69 µM (active)
